Reference: US10399991B2, “Kv1.3 inhibitors and their medical applications” (4SC AG, priority 2015, dated 2019)

What follows are compounds tested against Kv1.3 (Homo sapiens (Human), UniProt P22001) (assay: Patch-clamp assay for inhibitory activity on Kv1.3 (whole cell patch-clamp recording)). Settings: n≥2 per concentration.
Format: cell-based
Method: Patch-Clamp Assay for Inhibitory Activity on Kv1.3
For a description of a Kv1.3 patch-clamp assay, see Grissmer et al., Mol. Pharmacol. 1994, 45, 1227; whole cell patch-clamp recording was performed with n≥2 individual experiments at each compound concentration using different cells. Three or more different concentrations were determined per dose response curve.

Sequence of Kv1.3 (P22001 whole entry): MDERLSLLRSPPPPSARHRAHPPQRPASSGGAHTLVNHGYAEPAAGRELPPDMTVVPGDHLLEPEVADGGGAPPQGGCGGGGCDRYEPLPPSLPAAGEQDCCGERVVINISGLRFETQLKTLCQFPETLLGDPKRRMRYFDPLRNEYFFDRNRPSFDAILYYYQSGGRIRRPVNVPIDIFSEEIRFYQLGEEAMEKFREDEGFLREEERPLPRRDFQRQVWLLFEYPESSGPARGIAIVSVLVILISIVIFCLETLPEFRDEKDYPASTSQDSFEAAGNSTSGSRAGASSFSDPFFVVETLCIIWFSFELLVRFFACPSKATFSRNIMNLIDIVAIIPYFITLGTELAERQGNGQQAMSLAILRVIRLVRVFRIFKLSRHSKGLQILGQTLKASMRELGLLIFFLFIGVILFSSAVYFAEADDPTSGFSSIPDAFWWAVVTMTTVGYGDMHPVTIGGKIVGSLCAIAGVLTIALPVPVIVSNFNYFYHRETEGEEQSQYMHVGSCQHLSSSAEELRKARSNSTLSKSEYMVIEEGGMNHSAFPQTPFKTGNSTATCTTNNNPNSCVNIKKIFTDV

IC50	SMILES
≤ 500 nM	COc1ccccc1-c1cc(=O)oc2c(C)c3occ(C)c3cc12 [Example 1, 5-(2-methoxyphenyl)-3,9-dimethyl-7H-furo[3,2-g]chromen-7-one]
1500 to 3000 nM	COc1cccc(-c2cc(=O)oc3c(C)c4occ(C)c4cc23)c1 [Example 2, 5-(3-methoxyphenyl)-3,9-dimethyl-7H-furo[3,2-g]chromen-7-one]
1500 to 3000 nM	Cc1coc2c(C)c3oc(=O)cc(-c4ccccc4Cl)c3cc12 [Example 3, 5-(2-chlorophenyl)-3,9-dimethyl-7H-furo[3,2-g]chromen-7-one]
1500 to 3000 nM	Cc1coc2c(C)c3oc(=O)cc(-c4cccc(C(F)(F)F)c4)c3cc12 [Example 4, 3,9-dimethyl-5-(3-(trifluoromethyl)phenyl)-7H-furo[3,2-g]chromen-7-one]
≤ 500 nM	Cc1c(-c2ccccc2F)c2cc3c(C)coc3c(C)c2oc1=O [Example 5, 5-(2-fluorophenyl)-3,6,9-trimethyl-7H-furo[3,2-g]chromen-7-one]
501 to 1500 nM	COc1cccc(-c2c(C)c(=O)oc3c(C)c4occ(C)c4cc23)c1 [Example 6, 5-(3-methoxyphenyl)-3,6,9-trimethyl-7H-furo[3,2-g]chromen-7-one]
≤ 500 nM	COc1ccccc1-c1c(C)c(=O)oc2c(C)c3occ(C)c3cc12 [Example 7, 5-(2-methoxyphenyl)-3,6,9-trimethyl-7H-furo[3,2-g]chromen-7-one]
≤ 500 nM	Cc1coc2c(C)c3oc(=O)cc(-c4ccccc4F)c3cc12 [Example 8, 5-(2-fluorophenyl)-3,9-dimethyl-7H-furo[3,2-g]chromen-7-one]
1500 to 3000 nM	Cc1c(N2CCOCC2)oc2c(C)c3oc(=O)cc(-c4ccccc4)c3cc12 [Example 12, 3,9-dimethyl-2-morpholino-5-phenyl-7H-furo[3,2-g]chromen-7-one]
1500 to 3000 nM	Cc1c(C#N)oc2c(C)c3oc(=O)cc(-c4ccccc4)c3cc12 [Example 13, 3,9-dimethyl-7-oxo-5-phenyl-7H-furo[3,2-g]chromene-2-carbonitrile]
1500 to 3000 nM	Cc1c(CN2CCOCC2)oc2c(C)c3oc(=O)cc(-c4ccccc4)c3cc12 [Example 14, 3,9-dimethyl-2-(morpholinomethyl)-5-phenyl-7H-furo[3,2-g]chromen-7-one]
1500 to 3000 nM	Cc1c(CN(C)C)oc2c(C)c3oc(=O)cc(-c4ccccc4)c3cc12 [Example 15, 2-((dimethylamino)methyl)-3,9-dimethyl-5-phenyl-7H-furo[3,2-g]chromen-7-one]
501 to 1500 nM	Cc1ccccc1-c1cc(=O)oc2cc3occ(C)c3cc12 [Example 17, 3-methyl-5-(o-tolyl)-7H-furo[3,2-g]chromen-7-one]
501 to 1500 nM	Cc1cccc(-c2cc(=O)oc3cc4occ(C)c4cc23)c1 [Example 18, 3-methyl-5-(m-tolyl)-7H-furo[3,2-g]chromen-7-one]
501 to 1500 nM	COc1ccccc1-c1cc(=O)oc2cc3occ(C)c3cc12 [Example 19, 5-(2-methoxyphenyl)-3-methyl-7H-furo[3,2-g]chromen-7-one]
501 to 1500 nM	COc1cccc(-c2cc(=O)oc3cc4occ(C)c4cc23)c1 [Example 20, 5-(3-methoxyphenyl)-3-methyl-7H-furo[3,2-g]chromen-7-one]
501 to 1500 nM	Cc1coc2cc3oc(=O)cc(-c4ccccc4Cl)c3cc12 [Example 21, 5-(2-chlorophenyl)-3-methyl-7H-furo[3,2-g]chromen-7-one]
501 to 1500 nM	Cc1coc2cc3oc(=O)cc(-c4cccc(Cl)c4)c3cc12 [Example 22, 5-(3-chlorophenyl)-3-methyl-7H-furo[3,2-g]chromen-7-one]
1500 to 3000 nM	COc1c2occ(C)c2cc2c(-c3ccccc3)cc(=O)oc12 [Example 23, 9-methoxy-3-methyl-5-phenyl-7H-furo[3,2-g]chromen-7-one]
501 to 1500 nM	Cc1coc2nc3oc(=O)cc(-c4ccccc4)c3cc12 [Example 24, 3-methyl-5-phenyl-7H-furo[2,3-b]pyrano[3,2-e]pyridin-7-one]
501 to 1500 nM	Cc1ccccc1-c1c(Br)c(=O)[nH]c2c(C)c3occ(C)c3cc12 [Example 28, 6-bromo-3,9-dimethyl-5-(o-tolyl)furo[3,2-g]quinolin-7(8H)-one]
1500 to 3000 nM	Cc1ccccc1-c1cc(=O)[nH]c2c(C)c3occ(C)c3cc12 [Example 29, 3,9-dimethyl-5-(o-tolyl)furo[3,2-g]quinolin-7(8H)-one]
1500 to 3000 nM	Cc1coc2c(C)c3c(cc12)c(-c1ccccc1)cc(=O)n3C [Example 32, 3,8,9-trimethyl-5-phenylfuro[3,2-g]quinolin-7(8H)-one]

IC50	SMILES
≤ 500 nM	Cc1coc2c(C)c3c(cc12)c(-c1ccccc1)c(Br)c(=O)n3C [Example 33, 6-bromo-3,8,9-trimethyl-5-phenylfuro[3,2-g]quinolin-7(8H)-one]
501 to 1500 nM	Cc1c(-c2ccccc2)c2cc3c(C)noc3c(C)c2oc1=O [Example 35, 3,6,9-trimethyl-5-phenyl-7H-chromeno[6,7-d]isoxazol-7-one]
≤ 500 nM	Cc1c(-c2ccccc2)c2cc3c(C)noc3c(C)c2[nH]c1=O [Example 36, 3,6,9-trimethyl-5-phenylisoxazolo[4,5-g]quinolin-7(8H)-one]
501 to 1500 nM	Cc1nc2cc3c(-c4ccccc4)cc(=O)oc3c(C)c2o1 [Example 38, 2,4-dimethyl-8-phenyl-6H-chromeno[6,7-d]oxazol-6-one]
1500 to 3000 nM	CNCc1nc2cc3c(-c4ccccc4)cc(=O)oc3c(C)c2o1 [Example 39, 4-methyl-2-((methylamino)methyl)-8-phenyl-6H-chromeno[6,7-d]oxazol-6-one]
501 to 1500 nM	Cc1c(-c2ccccc2)c2cc3c(C4CC4)coc3c(C)c2oc1=O [Example 42, 3-cyclopropyl-6,9-dimethyl-5-phenyl-7H-furo[3,2-g]chromen-7-one]
1500 to 3000 nM	Cc1coc2c(C)c3oc(=O)cc(-c4cccnc4)c3cc12 [Example 44, 3,9-dimethyl-5-(pyridin-3-yl)-7H-furo[3,2-g]chromen-7-one]
1500 to 3000 nM	Cc1c(-c2ccccc2)c2cc3c(C)c(CN(C)C)oc3c(C)c2oc1=O [Example 46, 2-((dimethylamino)methyl)-3,6,9-trimethyl-5-phenyl-7H-furo[3,2-g]chromen-7-one]
1500 to 3000 nM	Cc1c2ocnc2cc2c(-c3ccccc3)cc(=O)oc12 [Example 47, 4-methyl-8-phenyl-6H-chromeno[6,7-d]oxazol-6-one]
501 to 1500 nM	Cc1nc2cc3c(-c4ccccc4)c(C)c(=O)oc3c(C)c2o1 [Example 48, 2,4,7-trimethyl-8-phenyl-6H-chromeno [6,7-d]oxazol-6-one]
1500 to 3000 nM	Cc1noc2c(C)c3oc(=O)cc(-c4ccccc4)c3cc12 [Example 50, 3,9-dimethyl-5-phenyl-7H-chromeno[6,7-d]isoxazol-7-one]
501 to 1500 nM	Cc1noc2c(C)c3[nH]c(=O)cc(-c4ccccc4)c3cc12 [Example 51, 3,9-dimethyl-5-phenylisoxazolo[4,5-g]quinolin-7(8H)-one]
501 to 1500 nM	Cc1c(-c2ccccc2)c2cc3c(C)noc3c(C)c2n(C)c1=O [Example 52, 3,6,8,9-tetramethyl-5-phenylisoxazolo[4,5-g]quinolin-7(8H)-one]
1500 to 3000 nM	Cc1c(-c2cccnc2)c2cc3c(C)noc3c(C)c2n(C)c1=O [Example 56, 3,6,8,9-tetramethyl-5-(pyridin-3-yl)isoxazolo[4,5-g]quinolin-7(8H)-one]
1500 to 3000 nM	Cc1coc2c(C)c3oc(=O)cc(-c4ccccn4)c3cc12 [Example 57, 3,9-dimethyl-5-(pyridin-2-yl)-7H-furo[3,2-g]chromen-7-one]
501 to 1500 nM	Cc1ccccc1-c1cc(=O)oc2c(C)c3occ(C)c3cc12 [Example 58, 3,9-dimethyl-5-(o-tolyl)-7H-furo[3,2-g]chromen-7-one]
501 to 1500 nM	Cc1ccccc1-c1c(C)c(=O)n(C)c2c(C)c3occ(C)c3cc12 [Example 59, 3,6,8,9-tetramethyl-5-(o-tolyl)furo[3,2-g]quinolin-7(8H)-one]
≤ 500 nM	Cc1c(-c2ccccc2Cl)c2cc3c(C)coc3c(C)c2n(C)c1=O [Example 60, 5-(2-chlorophenyl)-3,6,8,9-tetramethylfuro[3,2-g]quinolin-7(8H)-one]
≤ 500 nM	Cc1c(-c2ccccc2F)c2cc3c(C)coc3c(C)c2n(C)c1=O [Example 61, 5-(2-fluorophenyl)-3,6,8,9-tetramethylfuro[3,2-g]quinolin-7(8H)-one]
501 to 1500 nM	COc1ncccc1-c1c(C)c(=O)oc2c(C)c3occ(C)c3cc12 [Example 62, 5-(2-methoxypyridin-3-yl)-3,6,9-trimethyl-7H-furo[3,2-g]chromen-7-one]
1500 to 3000 nM	COc1ccncc1-c1c(C)c(=O)oc2c(C)c3occ(C)c3cc12 [Example 63, 5-(4-methoxypyridin-3-yl)-3,6,9-trimethyl-7H-furo[3,2-g]chromen-7-one]
1500 to 3000 nM	COc1ncccc1-c1c(C)c(=O)n(C)c2c(C)c3occ(C)c3cc12 [Example 64, 5-(2-methoxypyridin-3-yl)-3,6,8,9-tetramethylfuro[3,2-g]quinolin-7(8H)-one]

Each compound was assayed on Peripheral blood mononuclear cells (PBMC) (assay: T cell proliferation assay (anti-CD3 activated PBMC, BrdU based cell proliferation ELISA)). Settings: human PBMC, TRAM-34 (5 μM), 50 ng/ml anti-CD3, 48 hours; read-out: IC50(BrdU incorporation).
Excerpt: T cell proliferation assay (in analogy to Pegoraro et al., Bioorg. Med. Chem. Lett. 2009, 19, 2299)
Peripheral blood mononuclear cells (PBMC) from healthy human donors were isolated by centrifugation over a density gradient in an aqueous solution, comprising a high molecular weight polysaccharide and sodium diatrizionate, and having a density of 1.077±0.001 (Ficoll-Hypaque by Sigma-Aldrich, Germany; according to manufacturer's instructions). Purified PBMC were washed twice with PBS and resuspended in RPMI1640 culture medium (Gibco—Life Technologies) supplemented with 10% heat inactivated fetal calf serum, 1.5 mM L-glutamine, 100 U penicillin/ml, and 100 […] (all from PAA—GE Healthcare). For stimulation, PBMC were seeded at 1×10^5 cells/well, incubated with TRAM-34 (5 μM) and the test compounds for 4 h and activated with 50 ng/ml anti-CD3 (from eBioscience). After 48 hours proliferation was measured using a BrdU based cell proliferation ELISA according to the manual.

SMILES	IC50
COc1ccccc1-c1cc(=O)oc2c(C)c3occ(C)c3cc12 [Example 1, 5-(2-methoxyphenyl)-3,9-dimethyl-7H-furo[3,2-g]chromen-7-one]	3100 to 15000 nM
Cc1c(-c2ccccc2F)c2cc3c(C)coc3c(C)c2oc1=O [Example 5, 5-(2-fluorophenyl)-3,6,9-trimethyl-7H-furo[3,2-g]chromen-7-one]	1300 to 3000 nM
COc1ccccc1-c1c(C)c(=O)oc2c(C)c3occ(C)c3cc12 [Example 7, 5-(2-methoxyphenyl)-3,6,9-trimethyl-7H-furo[3,2-g]chromen-7-one]	1300 to 3000 nM
